Test results: patent publication US20250144172A1, “ANTI-FIBROTIC SIALIDASE INHIBITOR COMPOUNDS AND METHODS OF USE” (The Texas A&M University System, priority 2016, published 2025)

Legend:
[1] = tested on: mice with bleomycin-induced fibrosis; experiment: mouse bleomycin model of pulmonary fibrosis; type: in vivo; details: day 21
Protocol: The successful aspiration of bleomycin into the lungs was confirmed by listening for a crackling noise heard after the aspiration. Mice were weighed daily, and euthanized using CO2 following NIH guidelines at day 21 after bleomycin aspiration. The experiment was performed in accordance with the recommendations in the Guide for the Care and Use of Laboratory Animals of the National Institutes of Health. The Texas A&M University Animal Use and Care Committee approved the protocol.
The BALs were clarified by centrifugation at 500×g for 10 minutes, and the supernatants were transferred to Eppendorf tubes. The supernatants were flash frozen with liquid nitrogen, and stored at −20° C. until further use.
After collection of BAL fluid, mouse lungs were inflated with prewarmed Optimal Cutting Temperature (OCT) embedding medium (VWR, Radnor, PA) and then embedded in OCT, frozen on dry ice, and then stored at −80° C. 6-micron cryosections of mouse lungs were mounted on Superfrost Plus® microscope slides (VWR). The sections on the slides were allowed to air-dry for 24-48 hours. The slides were then fixed in acetone at room temperature for 20 minutes and air-dried for 10 minutes.
Then, starting 24 hours after bleomycin had been administered, the mice were given daily intraperitoneal injections of 10 mg/kg DANA (Calbiochem) in PBS or 10 mg/kg oseltamivir (Sigma) in PBS. Both inhibitors are quite polar and thus probably remain in the extracellular space. Assuming 2 ml of extracellular space in a 20 gram mouse, these doses would then be ˜3 μM. At day 21, mice were sacrificed and BAL and cryosections of lungs were obtained as described for Example 3. The experiment was performed in accordance with the recommendations in the Guide for the Care and Use of Laboratory Animals of the National Institutes of Health. The Texas A&M University Animal Use and Care Committee approved the protocol.
Treatment of mice with oropharyngeal bleomycin results in an initial inflammation, and then a fibrosis that has begun by day 10 after bleomycin treatment. To determine if sialidase inhibitors decrease fibrosis when treatment starts after the initial inflammation stage and when fibrosis is present, mice were treated with oropharyngeal bleomycin to induce symptoms of pulmonary fibrosis as described above. Then, starting 10 days after bleomycin had been administered, the mice were given daily intraperitoneal injections of 10 mg/kg DANA (Calbiochem) in PBS or 10 mg/kg oseltamivir (Sigma) in PBS. At day 21, mice were sacrificed and BAL and cryosections of lungs were obtained as described above. The experiment was performed in accordance with the recommendations in the Guide for the Care and Use of Laboratory Animals of the National Institutes of Health. The Texas A&M University Animal Use and Care Committee approved the protocol.
To determine if sialidase inhibitors could also reduce TGF-β1 levels in mice, mice were treated with bleomycin or saline, then injected daily with saline, DANA or oseltamivir starting at day 10 after bleomycin treatment, as described in Example 9. The mice were euthanized at day 21 and sections of lung tissue were stained for TGF-β1. Results are presented in FIG. 11A and are representative of results for three mice per group.

human PBMC [2] = experiment: TGF-β1 accumulation by human PBMC (antibody staining and ELISA); type: cell-based
Protocol: To determine if sialidases might cause cells to accumulate intracellular and extracellular TGF-β1, human PBMC were cultured with sialidases in 96 well plates at 5×10^5 cells/ml and 200 μl/well in FibroLife serum-free medium for five days, then air dried. The levels of TGF-β1 in or on the cells was detected by staining with an antibody against TGF-β1. Photomicrographs were analyzed by counting stained cells (FIG. 7B) and quantifying staining intensity using ImageJ (FIG. 7C).
PBMC were cultured in 96 well plates at 5×10^5 cells/ml and 200 μl/well in FibroLife serum-free medium. When the cells were plated, recombinant human sialidases were added to final concentrations of 200 ng/ml, and DANA or oseltamivir were added to 3 μM. After 5 days, culture supernatants were analyzed using a TGF-β1 ELISA kit (R&D Systems).

human PBMC [3] = experiment: fibrocyte formation in human PBMC, serum-free medium; type: cell-based; details: 5 days; for fibrocyte formation / differentiation: 100 ng/ml sialidase, 10 μg/ml DANA or 1 μg/ml SAP
Protocol: Human peripheral blood was collected from healthy adult volunteers who gave written consent and with specific approval from the Texas A&M University human subjects Institutional Review Board. Peripheral blood mononuclear cells (PBMC) were isolated from blood using Ficoll-Paque Plus (GE Healthcare Biosciences, Piscataway, NJ). Human PBMC were incubated in serum-free medium (FibroLife basal media (LM-0001, Lifeline Cell Technology, Walkersville, MD), supplemented with 10 mM HEPES (Sigma-Aldrich, St. Louis, MO), 1x non-essential amino acids (Sigma-Aldrich), 1 mM sodium pyruvate (Sigma-Aldrich), 2 mM glutamine (Invitrogen, Carlsbad, CA), 100 U/ml penicillin, 100 μg/ml streptomycin (Sigma-Aldrich), and 1x ITS-3 (Sigma-Aldrich) in the presence of absence of 100 ng/ml recombinant human sialidases (Origene, Rockville MD), 10 μg/ml DANA (Calbiochem, San Diego, CA), or 1 μg/ml human SAP (Calbiochem). After 5 days, fibrocytes were counted, and results are presented in FIG. 5.

human NEU3 = human NEU3 (Homo sapiens (Human), UniProt Q9UQ49); experiment: human NEU3 sialidase inhibition; details: read-out: NEU3 IC50; human NEU3
Text: Enzymatic activity may be defined as inhibited if the rate measured by the Michaelis-Menten equation in an in vitro assay using a substrate with a terminal sialic acid is inhibited by at least 50%. More specifically, a human sialidase inhibitor may be a compound that inhibits the rate of at least one human sialidase by at least 50% as measured by the Michaelis-Menten equation in an in vitro assay using the fluorometric substrate 4MU-NANA [2′-(4-Methylumbelliferyl)-α-D-N-acetylneuraminic acid.
In general, sialidase activity, including human sialidase activity, may be assessed at 37° C. in the presence of buffers ranging in pH from 3.7 to 7.4. […] Bovine serum albumin (BSA) is added to the buffer at a concentration of 100 ug/ml. Sialidase at a final concentration of 300 ng/ml is then added to the buffer. A sialidase inhibitor is then added to the mixture at a series of final concentrations. The reaction mixture is incubated for 30 minutes to allow the inhibitor to bind the sialidase. The fluorometric substrate 4MU-NANA [2′-(4-Methylumbelliferyl)-α-D-N-acetylneuraminic acid sodium salt hydrate is then added at a final concentration of 200 μM. […] The total volume of each reaction mixture is 0.1 ml. The cleavage of 4MU-NANA is then monitored by fluorescence every 20 minutes for 5 hours with excitation light at 360 nm and the fluorescence emission at 460 nm.

[4] = recombinant human sialidase activity, 4MU-NANA cleavage at pH 6.4 and 7.0; type: biochemical
Protocol: In general, sialidase activity, including human sialidase activity, may be assessed at 37° C. in the presence of buffers ranging in pH from 3.7 to 7.4. Buffers with pH 3.7, 4.0, 4.6, 5.2 and 5.6 are 100 mM sodium acetate buffers. Buffers with pH 5.8, 6.4, 7.0 and 8.0 are based on Phosphate-Buffered Saline (PBS), with addition of 12 N HCl or 1 M NaOH to adjust the pH. Bovine serum albumin (BSA) is added to the buffer at a concentration of 100 ug/ml. Sialidase at a final concentration of 300 ng/ml is then added to the buffer. A sialidase inhibitor is then added to the mixture at a series of final concentrations. The reaction mixture is incubated for 30 minutes to allow the inhibitor to bind the sialidase. The fluorometric substrate 4MU-NANA [2′-(4-Methylumbelliferyl)-α-D-N-acetylneuraminic acid sodium salt hydrate is then added at a final concentration of 200 μM. Control reactions have no added inhibitor. The total volume of each reaction mixture is 0.1 ml. The cleavage of 4MU-NANA is then monitored by fluorescence every 20 minutes for 5 hours with excitation light at 360 nm and the fluorescence emission at 460 nm.
The fluorescence in the absence of sialidases is subtracted from all readings. The fluorescence of known concentrations of 4-methylumbelliferone is used to convert fluorescence to moles of product. […]

human PBMC [5] = experiment: sialidase staining of human PBMC cultured with TGF-β1; type: cell-based; details: 10 ng/ml TGF-β1, five days
Protocol: (§1) TGF-β1 is strongly associated with fibrosis so its effects on sialidase expression were determined. Human lung adenocarcinoma cell line A549, human small airway epithelial cells, human pulmonary fibroblasts, and human immune cells were cultured with or without 10 ng/ml of recombinant active TGF-β1, which is a standard concentration used in tissue culture experiments. After three days for A549 cells, airway epithelial cells, and fibroblasts, or five days for immune cells, the cells were stained with antibodies against sialidases.

[6] = tested on: human pulmonary fibroblasts; experiment: human pulmonary fibroblasts cultured with TGF-β1; type: cell-based; details: 10 ng/ml TGF-β1, three days
Protocol: as §1

A549 cells = experiment: sialidase staining of A549 cells cultured with TGF-β1; type: cell-based, human; details: 10 ng/ml TGF-β1, three days
Protocol: as §1

[7] = tested on: human small airway epithelial cells; experiment: sialidase staining of human small airway epithelial cells cultured with TGF-β1; type: cell-based; details: 10 ng/ml TGF-β1, three days
Protocol: as §1

[8] = tested on: human monocytes and lymphocytes; experiment: sialidase levels in human PBMC cultured with IL-6 (flow cytometry); type: cell-based; details: 100 and 1000 pg/ml IL-6; three days
Protocol: To determine the effects of IL-6 on NEU3 production by human PBMC, PBMC were cultured as above in serum-free medium at 10^5 cells/ml with 2 ml/well in 6-well tissue culture plates (VWR) in the presence or absence of recombinant human interleukin-6 (IL-6) (BioLegend). After three days, the medium was carefully removed and the cells were washed with 1 ml of phosphate buffered saline (PBS) at room temperature. The cells were detached with 500 μl of Accutase cell detachment solution (VWR) per well for 6 minutes at 37° C. 1000 μl RPMI medium supplemented as described above with BCS, penicillin, streptomycin and glutamine was added per well to neutralize the Accutase. After pipetting the cell solutions 4 times, the cells were placed in sterile 1.7 ml microtubes (Genesee Scientific, San Diego, CA) and cells were collected by centrifugation at 5000×g for 10 minutes at 4° C. The pelleted cells were washed twice by resuspension with 1000 μl of ice-cold PBS and centrifugation. The cells were resuspended in 200 μl of ice-cold 2% (w/v) paraformaldehyde (EMS, Hatfield, PA), in PBS for 10 minutes on ice for fixation. 1000 μl of ice-cold PBS was added and cells were collected by centrifugation. The cells were resuspended in 200 μl of ice-cold 2% (w/v) bovine serum albumin (BSA) (VWR) in PBS (PBSA), for 10 minutes on ice for blocking. […]

Chain of human NEU3 (Q9UQ49 whole entry): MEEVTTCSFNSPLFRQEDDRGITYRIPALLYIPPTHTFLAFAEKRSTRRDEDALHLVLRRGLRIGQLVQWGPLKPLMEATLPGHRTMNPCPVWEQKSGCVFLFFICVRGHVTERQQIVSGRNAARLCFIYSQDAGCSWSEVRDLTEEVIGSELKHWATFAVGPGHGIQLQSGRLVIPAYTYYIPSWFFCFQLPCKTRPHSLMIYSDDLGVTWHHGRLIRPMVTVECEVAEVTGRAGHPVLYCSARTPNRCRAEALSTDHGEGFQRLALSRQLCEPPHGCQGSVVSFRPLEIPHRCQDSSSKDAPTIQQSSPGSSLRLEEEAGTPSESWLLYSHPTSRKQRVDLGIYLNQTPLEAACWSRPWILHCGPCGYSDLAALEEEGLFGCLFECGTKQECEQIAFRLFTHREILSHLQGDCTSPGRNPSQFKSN

CC(=O)N[C@H]1[C@H]([C@H](O)[C@H](O)CO)OC(C(=O)O)=C[C@@H]1O [Compound 1, N-Acetyl-2,3-dehydro-2-deoxyneuraminic acid, reference compound]
collagen deposition in the lungs (Sirius red) ([1]; 10 mg/kg daily i.p. starting 24 hours after bleomycin): reduced | collagen deposition in the lungs (Sirius red) ([1]; 10 mg/kg daily i.p. starting at day 10): reduced | TGF-β1 levels in lung tissue (staining) ([1]; daily injection starting at day 10): reduced TGF-β1 levels | effects of NEU2 and NEU3 on extracellular TGF-β1 (human PBMC [2]; inhibitor 3 μM, sialidases 200 ng/ml, 5 days, ELISA): blocked | NEU4 potentiation of fibrocyte differentiation (human PBMC [3]; 10 μg/ml DANA with 100 ng/ml NEU4): inhibited the NEU4 potentiation of fibrocyte differentiation | fibrocyte formation / differentiation (human PBMC [3]): inhibited fibrocyte differentiation | IC50 (human NEU3): 61 µM

NEU1: recombinant human NEU1 (sialidase 1), human neuraminidase 1
accumulation of TGF-β1 (human PBMC [2]; recombinant sialidase 200 ng/ml, five days): no significant effect | ability of SAP to inhibit fibrocyte formation (human PBMC [3]; 100 ng/ml sialidase with 1 μg/ml SAP): did not potentiate fibrocyte differentiation or counteract SAP | fibrocyte formation / differentiation (human PBMC [3]): did not potentiate fibrocyte differentiation | Sialidase activity ([4]; pH 6.4): 12.8 ± 1.3 μmole/min/mg protein | Sialidase activity ([4]; pH 7.0): 7.2 ± 0.9 μmole/min/mg protein

TGF-β1: recombinant active TGF-β1
sialidase levels (antibody staining) (human PBMC [5]): increased levels of NEU2 and NEU3 in some cells | proliferation of human pulmonary fibroblasts [6]: increased the proliferation | sialidase levels (antibody staining) ([6]; pulmonary fibroblasts): increase levels of NEU3 | sialidase levels (antibody staining) (A549 cells): increase levels of NEU3 | sialidase levels (antibody staining) [7]: increase levels of NEU3, and slightly increased levels of NEU1

IL-6: recombinant human interleukin-6 (IL-6) (BioLegend)
levels of NEU3 in human monocytes and lymphocytes [8]: significantly increased
